IC50 data for 28 molecules are collected here from patent US20250026766A1, “Thiazolopyridyl Amide Derivatives as DNA Polymerase Theta Inhibitors” (BeiGene, Ltd., priority 2022, published 2025).

The experiment deals with Pol Theta (1-894) (Homo sapiens (Human), UniProt O75417). The experiment can be described thus: Biochemical Pol Theta (1-894) ATPase IC50 assay (ADP-Glo, ssDNA substrate). The settings on record: ADP-Glo assay with ssDNA substrate, room temperature. How it is done: Baculovirus Expression of Human POL theta (1-894)
Chain of Pol Theta (1-894) (O75417 1-894): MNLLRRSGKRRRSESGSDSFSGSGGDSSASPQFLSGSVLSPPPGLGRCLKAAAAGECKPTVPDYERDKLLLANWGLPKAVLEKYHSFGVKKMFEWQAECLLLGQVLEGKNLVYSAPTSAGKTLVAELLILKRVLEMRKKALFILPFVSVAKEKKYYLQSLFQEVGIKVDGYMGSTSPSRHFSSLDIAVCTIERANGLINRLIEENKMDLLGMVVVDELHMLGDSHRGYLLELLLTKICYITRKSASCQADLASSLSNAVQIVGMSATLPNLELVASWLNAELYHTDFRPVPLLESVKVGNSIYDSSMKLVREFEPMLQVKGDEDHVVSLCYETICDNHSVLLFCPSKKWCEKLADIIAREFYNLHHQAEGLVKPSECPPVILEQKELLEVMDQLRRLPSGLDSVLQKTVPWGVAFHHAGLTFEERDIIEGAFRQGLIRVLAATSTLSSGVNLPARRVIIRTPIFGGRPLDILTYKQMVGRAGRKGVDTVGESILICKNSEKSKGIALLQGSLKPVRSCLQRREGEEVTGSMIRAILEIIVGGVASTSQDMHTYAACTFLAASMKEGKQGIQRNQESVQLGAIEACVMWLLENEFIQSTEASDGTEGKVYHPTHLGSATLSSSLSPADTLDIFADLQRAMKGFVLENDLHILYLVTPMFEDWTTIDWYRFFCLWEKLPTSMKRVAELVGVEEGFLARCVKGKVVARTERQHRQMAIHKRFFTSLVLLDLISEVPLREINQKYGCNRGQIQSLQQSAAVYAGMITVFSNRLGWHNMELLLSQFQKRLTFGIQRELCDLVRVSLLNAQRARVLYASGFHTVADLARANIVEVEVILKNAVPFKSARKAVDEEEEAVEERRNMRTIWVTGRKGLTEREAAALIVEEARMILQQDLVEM
Human POL Theta (1-894)-His-pFastBac1 baculovirus samples were generated using the Bac-to-Bac baculovirus expression system (Invitrogen) according to the manufacturer's protocol. […] Baculovirus amplification was achieved using infected SF9 cells at 1:2000 virus/cells ratios, and grown for 96 hours at 27° C. post-transfection. The expression scaled up for each protein was carried out in the flask 3 L from CORNING. 4 L of 3×10^6 cells/mL Sf9 cells (Expression System, Invitrogen) grown in SF900TM II SFM insect medium (Expression System) were infected with virus stock at 1:200 virus/cell ratios, and grown for 48 hours at 27° C. post-transfection. The infected cell culture was harvested by centrifugation at 6000 rpm for 15 min 4° C. in a SORVALL LYNX6000 centrifuge. The cell pellets were stored at −80° C.
The human POL Theta (1-894)-His produced as described above, were purified from Sf9 baculovirus-infected insect cell paste. The cells were lysed using sonication method, and the lysates were clarified by centrifugation.
Enzymatic reactions of Pol Theta (1-894) were performed using ADP-Glo assay with ssDNA substrate. Pol Theta (1-894) was expressed in baculovirus expression system. The inhibition activities testing for the compound disclosed herein were carried out at room temperature in assay buffer containing 40 mM Tris pH 7.5, 20 mM MgCl2, 1 mM DTT, 0.01% BSA and 0.05% Tween-20. Compounds in DMSO were dispensed into wells of a black 384 well plate (Corning 4514) using D300e digital dispenser (Tecan). The ranges of compounds final concentration were 2.62 nM˜10000 nM. 3 μL 2× enzyme solution containing 12.5 nM enzyme was added to wells. […] After 1 hour reaction, 5 μL ADP-Glo reagent (Promga V9102) was added and incubated for 40 minutes. 10 μL Kinase Detection reagent was added and incubated for 40 minutes. Luminescence was measured on a microplate reader (PHERAstar FSX, BMG labtech). The IC50 values were calculated based on inhibition of enzyme activity in the presence of increasing concentrations of compounds.
As a reminder, the IC50 is the concentration that gives 50% inhibition. Low values mean inhibition by little substance, high ones a need for much substance. In the case of `CCOc1ccc(C#N)cc1-c1cc(C)ncc1C(=O)Nc1nc2ccc(-c3ccc(C#N)cc3)nc2s1` [Example 105, 4-(5-cyano-2-ethoxyphenyl)-N-(5-(4-cyanophenyl)thiazolo[5,4-b]pyridin-2-yl)-6-methylnicotinamide], inhibition was half-maximal at 16 nM (IC50). In the case of `CNC(=O)c1ccc(-c2ccc3nc(NC(=O)c4cnncc4-c4ccccc4OC)sc3n2)c(C)c1` [Example 134, 5-(2-methoxyphenyl)-N-(5-(2-methyl-4-(methylcarbamoyl)phenyl)thiazolo[5,4-b]pyridin-2-yl)pyridazine-4-carboxamide] it was 15 nM.

`COc1ccc([N+](=O)[O-])cc1-c1ccncc1C(=O)Nc1nc2ccc(-c3ccc(C#N)cc3)nc2s1` [Example 156, N-(5-(4-cyanophenyl)thiazolo[5,4-b]pyridin-2-yl)-4-(2-methoxy-5-nitrophenyl)nicotinamide] displayed an IC50 of 14 nM. Molecule `COc1ccc(C#N)cc1-c1cc(C)ncc1C(=O)Nc1nc2ccc(-c3ccc(NC(=O)C(C)C)c(C)c3)nc2s1` [Example 51, 4-(5-cyano-2-methoxyphenyl)-N-(5-(4-isobutyramido-3-methylphenyl)thiazolo[5,4-b]pyridin-2-yl)-6-methylnicotinamide] came in with an IC50 of 15 nM. The figure for `COc1ccc(C#N)cc1-c1cnccc1C(=O)Nc1nc2ccc(-c3ccc(NC(C)=O)cc3)nc2s1` [Example 22, N-(5-(4-acetamidophenyl)thiazolo[5,4-b]pyridin-2-yl)-3-(5-cyano-2-methoxyphenyl)isonicotinamide] is 33 nM; for `COc1ccc(C#N)cc1-c1cc(C)ncc1C(=O)Nc1nc2ccc(-c3ccc(F)cc3)nc2s1` [Example 30, 4-(5-cyano-2-methoxyphenyl)-N-(5-(4-fluorophenyl)thiazolo[5,4-b]pyridin-2-yl)-6-methylnicotinamide] it is 222 nM; for `COc1ccccc1-c1cnncc1C(=O)Nc1nc2ccc(Oc3ccc(S(C)(=O)=O)cc3)nc2s1` [Example 160, 5-(2-methoxyphenyl)-N-(5-(4-(methylsulfonyl)phenoxy)thiazolo[5,4-b]pyridin-2-yl)pyridazine-4-carboxamide] it is 63 nM. In the case of `COc1ccccc1-c1cnccc1C(=O)Nc1nc2ccc(-c3ccc(Cl)cc3)nc2s1` [Example 3, N-(5-(4-chlorophenyl)thiazolo[5,4-b]pyridin-2-yl)-3-(2-methoxyphenyl)isonicotinamide] it was 145 nM. `COc1ccccc1-c1cnncc1C(=O)Nc1nc2ccc(-c3ccc(C(=O)NC(C)C)cc3)nc2s1` [Example 102, N-(5-(4-(isopropylcarbamoyl)phenyl)thiazolo[5,4-b]pyridin-2-yl)-5-(2-methoxyphenyl)pyridazine-4-carboxamide] gave an IC50 of 63 nM. This IC50 lies about 2.3-fold lower than the previous one. In the case of `COc1ccc(C#N)cc1-c1cc(C)ncc1C(=O)Nc1nc2ccc(-c3ccc(C(C)(C)O)cc3)nc2s1` [Example 80, 4-(5-cyano-2-methoxyphenyl)-N-(5-(4-(2-hydroxypropan-2-yl)phenyl)thiazolo[5,4-b]pyridin-2-yl)-6-methylnicotinamide] it was 26 nM. In the case of `Cc1cc(-c2cc(C#N)ccc2C)c(C(=O)Nc2nc3ccc(-c4ccc(C#N)cc4)nc3s2)cn1` [Example 106, 4-(5-cyano-2-methylphenyl)-N-(5-(4-cyanophenyl)thiazolo[5,4-b]pyridin-2-yl)-6-methylnicotinamide], half-maximal inhibition (IC50) was put at 26 nM. This counts as double-digit nanomolar. The figure for `COc1ccc(C#N)cc1-c1cc(C(F)(F)F)ncc1C(=O)Nc1nc2ccc(-c3ccc(C#N)cc3)nc2s1` [Example 37, 4-(5-cyano-2-methoxyphenyl)-N-(5-(4-cyanophenyl)thiazolo[5,4-b]pyridin-2-yl)-6-(trifluoromethyl)nicotinamide] is 151 nM; for `CCC(=O)Nc1ccc(-c2ccc3nc(NC(=O)c4cnc(C)cc4-c4cc(C#N)ccc4OC)sc3n2)cc1` [Example 41, 4-(5-cyano-2-methoxyphenyl)-6-methyl-N-(5-(4-propionamidophenyl)thiazolo[5,4-b]pyridin-2-yl)nicotinamide] it is 91 nM; for `COCCOc1ccc(-c2ccc3nc(NC(=O)c4cnc(C)cc4-c4cc(C#N)ccc4OC)sc3n2)cc1` [Example 123, 4-(5-cyano-2-methoxyphenyl)-N-(5-(4-(2-methoxyethoxy)phenyl)thiazolo[5,4-b]pyridin-2-yl)-6-methylnicotinamide] it is 27 nM. The figure for `COc1ccccc1-c1cnncc1C(=O)Nc1nc2ccc(-c3ccc(Cl)cc3Cl)nc2s1` [Example 117, N-(5-(2,4-dichlorophenyl)thiazolo[5,4-b]pyridin-2-yl)-5-(2-methoxyphenyl)pyridazine-4-carboxamide] is 12 nM. The figure for `COc1ccccc1-c1cnncc1C(=O)Nc1nc2ccc(C(=O)c3ccc(Cl)cc3)nc2s1` [Example 137, N-(5-(4-chlorobenzoyl)thiazolo[5,4-b]pyridin-2-yl)-5-(2-methoxyphenyl)pyridazine-4-carboxamide] is 54 nM; for `COc1ccccc1-c1cnncc1C(=O)Nc1nc2ccc(-c3ccc(C#N)cc3C)nc2s1` [Example 121, N-(5-(4-cyano-2-methylphenyl)thiazolo[5,4-b]pyridin-2-yl)-5-(2-methoxyphenyl)pyridazine-4-carboxamide] it is 4.9 nM. `COc1ccc(C#N)cc1-c1cc(C)ncc1C(=O)Nc1nc2ccc(-c3ccc(C(=O)N4CCCC4)cc3)nc2s1` [Example 85, 4-(5-cyano-2-methoxyphenyl)-6-methyl-N-(5-(4-(pyrrolidine-1-carbonyl)phenyl)thiazolo[5,4-b]pyridin-2-yl)nicotinamide] displayed an IC50 of 62 nM.

For `CCS(=O)(=O)Nc1ccc(-c2ccc3nc(NC(=O)c4cnc(C)cc4-c4cc(C#N)ccc4OC)sc3n2)cc1` [Example 35, 4-(5-cyano-2-methoxyphenyl)-N-(5-(4-(ethylsulfonamido)phenyl)thiazolo[5,4-b]pyridin-2-yl)-6-methylnicotinamide], the IC50 worked out at 94 nM.

`COc1ccc(C#N)cc1-c1cc(CO)ncc1C(=O)Nc1nc2ccc(-c3ccc(C#N)cc3)nc2s1` [Example 109, 4-(5-cyano-2-methoxyphenyl)-N-(5-(4-cyanophenyl)thiazolo[5,4-b]pyridin-2-yl)-6-(hydroxymethyl)nicotinamide] registered an IC50 of 4.7 nM. This IC50 is about 20-fold lower than that of the molecule before.

Molecule `COc1ccc(C#N)cc1-c1cc(C)ncc1C(=O)Nc1nc2ccc(-c3ccc(N4C(=O)COC4=O)c(C)c3)nc2s1` [Example 163, 4-(5-cyano-2-methoxyphenyl)-N-(5-(4-(2,4-dioxooxazolidin-3-yl)-3-methylphenyl)thiazolo[5,4-b]pyridin-2-yl)-6-methylnicotinamide] gave an IC50 of 28 nM. Against the preceding molecule, the IC50 is about 6-fold higher. The molecule `CCNC(=O)c1ccc(-c2ccc3nc(NC(=O)c4cnncc4-c4ccccc4OC)sc3n2)cc1` [Example 108, N-(5-(4-(ethylcarbamoyl)phenyl)thiazolo[5,4-b]pyridin-2-yl)-5-(2-methoxyphenyl)pyridazine-4-carboxamide] gave an IC50 of 19 nM. The figure for `COc1ccccc1-c1cnncc1C(=O)Nc1nc2ccc(-c3c(C)cc(C#N)cc3C)nc2s1` [Example 148, N-(5-(4-cyano-2,6-dimethylphenyl)thiazolo[5,4-b]pyridin-2-yl)-5-(2-methoxyphenyl)pyridazine-4-carboxamide] is 8.4 nM. In turn, `COc1ccc(C#N)cc1-c1cc(C)ncc1C(=O)Nc1nc2ccc(-c3ccc(CN4CCCC4=O)cc3C)nc2s1` [Example 174, 4-(5-cyano-2-methoxyphenyl)-6-methyl-N-(5-(2-methyl-4-((2-oxopyrrolidin-1-yl)methyl)phenyl)thiazolo[5,4-b]pyridin-2-yl)nicotinamide] gave an IC50 of 11 nM. As for `COc1ccccc1-c1cnncc1C(=O)Nc1nc2ccc(CCc3ccc(Cl)cc3)nc2s1` [Example 62, N-(5-(4-chlorophenethyl)thiazolo[5,4-b]pyridin-2-yl)-5-(2-methoxyphenyl)pyridazine-4-carboxamide], the half-inhibitory concentration (IC50) was determined as 24 nM. In the case of `COc1ccc(C#N)cc1-c1cc(C)ncc1C(=O)Nc1nc2ccc(-c3ccc(CC#N)cn3)nc2s1` [Example 168, 4-(5-cyano-2-methoxyphenyl)-N-(5-(5-(cyanomethyl)pyridin-2-yl)thiazolo[5,4-b]pyridin-2-yl)-6-methylnicotinamide] it was 4.4 nM; in that of `COc1cc(C#N)ccc1-c1ccc2nc(NC(=O)c3cnncc3-c3ccccc3OC)sc2n1` [Example 119, N-(5-(4-cyano-2-methoxyphenyl)thiazolo[5,4-b]pyridin-2-yl)-5-(2-methoxyphenyl)pyridazine-4-carboxamide], 5.2 nM; in that of `COc1ccc(C#N)cc1-c1cc(C)ncc1C(=O)Nc1nc2ccc(-c3ccc(CC#N)cc3C)nc2s1` [Example 172, 4-(5-cyano-2-methoxyphenyl)-N-(5-(4-(cyanomethyl)-2-methylphenyl)thiazolo[5,4-b]pyridin-2-yl)-6-methylnicotinamide], 10 nM.
